Measured values published in patent EP2604265A1, “P2x7 antagonists as frontline or adjunctive treatment against status epilepticus” (Royal College of Surgeons in Ireland (RCSI), priority 2011, dated 2013).

Key:
glutamate receptors = experiment: Fura-2 calcium microfluorimetry, glutamate-evoked calcium entry; type: cell-based, mouse; settings: cultured hippocampal neurons; glutamate 100 µM; BBG 1 µM
Experimental: Hippocampal neurons were prepared as described previously (Diaz-Hernandez et al., 2008). Briefly, hippocampi were obtained from E17 mouse embryos and, after dissection and washing three times in Ca^2+/Mg^2+-free HBSS, tissue was digested in the same solution with 0.25% trypsin for 15 min at 37°C. Hippocampi were then washed three times in Ca^2+/Mg^2+-free HBSS and dissociated with a firepolished Pasteur pipette. Cells were counted, resuspended in plating medium (MEM, 10% fetal bovine serum, 0.6% glucose) and plated at a density of 5,000 cells/cm^2 on poly-L-lysine coated coverslips (1 mg/ml). After plating, neurons were cultured for 24-72 h in neuronal culture medium (Neurobasal, B-27, glutamax-I). For biochemical experiments, hippocampal neurons were plated on polylysine-coated (1 mg/ml) 60-mm plates at a density of 200,000 cells/cm^2, and cultured for 72 h in neuronal culture medium. AraC was added at a final concentration of 5 µM after 2 days in culture.
Calcium microfluorimetric analysis in single neurons was carried out according to (Diaz-Hernandez et al., 2001). […]
Neurons were visualized using a Plan Fluor x40 S/0.5-1.3 oil lens. […] The background was subtracted at each wavelength and the 340 / 380 ratio was calculated. The data are represented as the normalized F340/F380 fluorescence ratio, which increases as [Ca^2+]i increases.

Adult male C57BL/6 mice = experiment: Intra-amygdala KA-induced SE in mice, EEG, early post-treatment after seizure onset; type: in vivo; settings: i.c.v. 15 min after KA
Experimental: Adult male C57BL/6 mice (20-25 g) were obtained from Harlan UK (Blackthorn, UK). Mice were first anesthetized using isoflurane (3-5%) and maintained normothermic by means of a feedback-controlled heat blanket (Harvard Apparatus Ltd, Kent, UK). Mice were next placed in a stereotaxic frame and three partial craniectomies performed to affix cortical skull-mounted EEG electrodes (Bilaney Consultants Ltd, Sevenoaks, UK). EEG was recorded using a Grass Comet XL digital EEG (Medivent Ltd, Lucan, Ireland). A guide cannula was affixed (coordinates from Bregma: AP = 0.94; L = 2.85 mm) and the assembly fixed in place with dental cement. Anesthesia was then discontinued and freely moving mice were placed inside a clear perspex recording chamber. EEG recordings were commenced and after establishing baseline EEG for a few minutes, an injection cannula was lowered through the guide cannula for injection of kainic acid (KA) (Ocean Produce International, Nova Scotia, Canada) into the basolateral amygdala nucleus (0.3 µg in 0.2 µl phosphate-buffered saline). Non-seizure control mice underwent the same surgical procedure but received 0.2 µl intra-amygdala vehicle. Mice were killed at different time-points (1, 4, 8 or 24 h) later and perfused with saline to remove intravascular blood components. Brains were either flash-frozen whole in 2-methylbutane at […] or perfused with 4% PFA for histopathology, or dissected on ice to obtain whole hippocampus or microdissected to obtain the different hippocampal subfields (CA1, DG and CA3).
Digitized EEG recordings were analyzed off-line using manual assessment and automated software. The occurrence of high amplitude high frequency spiking during seizures is synonymous with injury-causing electrographic seizures during SE (also termed type IV electrographic seizures) (Lowenstein et al., 1991; Henshall et al., 2000). The duration of high-frequency (>5 Hz) high-amplitude (>2× baseline) polyspike discharges of ≥5 s duration (HAHFDs) was counted by a reviewer blind to treatment. Further EEG analysis was performed by uploading EEG into Labchart7 software (ADInstruments) to calculate the power spectral density (total power, a measure of the input signal's power (amplitude) over frequency) EEG spectrogram (spectral power against frequency and time).
A-438079 (3-[[5-(2,3-Dichlorophenyl)-1H-tetrazol-1-yl]methyl]pyridine hydrochloride) (50 µM) was from Tocris Biosciences (Bristol, U.K.) and the P2X7R specific antibody was from Alomone Labs (APR-008, Alomone Labs, Ltd, Jerusalem, Israel) and injected at 0.7 mg/ml. Lorazepam (Ativan®, Wyeth, Taplow, U.K.) (6 mg/kg) was administered intraperitoneally (i.p.) at 40 or 60 min after KA.
15 min after the injection of KA. […]

Structure (SMILES) | glutamate-induced calcium entry (glutamate receptors) | duration of HAHFDs (Adult male C57BL/6 mice; recorded until lorazepam at 40 min post-KA, vs vehicle) | Total seizure power (Adult male C57BL/6 mice; until 40 min post-KA, vs vehicle) | frequency of the EEG (Adult male C57BL/6 mice; vs vehicle) | seizure amplitude (Adult male C57BL/6 mice; spectral heat map during SE)
CCOc1ccc(Nc2ccc(C(=C3C=CC(=[N+](CC)Cc4cccc(S(=O)(=O)[O-])c4)C=C3C)c3ccc(N(CC)Cc4cccc(S(=O)(=O)O)c4)cc3C)cc2)cc1 [BBG, Brilliant Blue G] | failed to alter |  |  |  | 
Cl.Clc1cccc(-c2nnnn2Cc2cccnc2)c1Cl [A-438079, 3-[[5-(2,3-Dichlorophenyl)-1H-tetrazol-1-yl]methyl]pyridine hydrochloride] |  | significantly reduced | significantly reduced | No changes | decreased
